{
  "source": "patent US20200354402A1",
  "about": "“PEPTIDE COMPOSITIONS AND RELATED METHODS” (Allegro Pharmaceuticals, LLC, priority 2017, published 2020)",
  "origin": "cited, not measured here",
  "system": "ischemia-induced retinal neovascularization",
  "details": "intravitreal injection; stated as known",
  "data": [
    {"substance": "R—G—E.TFA [Test Compound 21]", "values": [
      {"measurement": "known activity of the control peptides", "value": "known to be inactive"}
    ]}
  ]
}
